Source: PubChem BioAssay (NCI)
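Each compound was tested at five concentrations against cells in 96-well plates for 48 hours. TGI: total growth inhibition.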

Key:
Test in all cases: growth of human tumour cells (NCI), 48 h
RPMI-8226 leukemia = tested on: RPMI-8226 leukemia
OVCAR-8 ovarian = tested on: OVCAR-8 ovarian
NCI-H226 lung = tested on: NCI-H226 lung
A498 renal = tested on: A498 renal
NCI-H522 lung = tested on: NCI-H522 lung
SK-MEL-28 melanoma = tested on: SK-MEL-28 melanoma
UACC-62 melanoma = tested on: UACC-62 melanoma
DU-145 prostate = tested on: DU-145 prostate
HT29 colon = tested on: HT29 colon
KM12 colon = tested on: KM12 colon
UACC-257 melanoma = tested on: UACC-257 melanoma
HCT-15 colon = tested on: HCT-15 colon
UO-31 renal = tested on: UO-31 renal
NCI-H460 lung = tested on: NCI-H460 lung
MALME-3M melanoma = tested on: MALME-3M melanoma
MCF7 breast = tested on: MCF7 breast
K-562 leukemia = tested on: K-562 leukemia
CCRF-CEM leukemia = tested on: CCRF-CEM leukemia
SW-620 colon = tested on: SW-620 colon
OVCAR-4 ovarian = tested on: OVCAR-4 ovarian
SF-539 CNS = tested on: SF-539 CNS
SNB-19 CNS = tested on: SNB-19 CNS
PC-3 prostate = tested on: PC-3 prostate
786-0 renal = tested on: 786-0 renal
EKVX NSCLC = tested on: EKVX NSCLC
CAKI-1 renal = tested on: CAKI-1 renal
MDA-N = tested on: MDA-N
T-47D breast = tested on: T-47D breast
COLO 205 colon = tested on: COLO 205 colon
MOLT-4 leukemia = tested on: MOLT-4 leukemia
MDA-MB-435 = tested on: MDA-MB-435
IGROV1 ovarian = tested on: IGROV1 ovarian
HOP-62 NSCLC = tested on: HOP-62 NSCLC
BT-549 breast = tested on: BT-549 breast
NCI/ADR-RES ovarian = tested on: NCI/ADR-RES ovarian
SF-268 CNS = tested on: SF-268 CNS
HOP-92 NSCLC = tested on: HOP-92 NSCLC
NCI-H23 lung = tested on: NCI-H23 lung
HCC-2998 colon = tested on: HCC-2998 colon
SNB-75 CNS = tested on: SNB-75 CNS
ACHN renal = tested on: ACHN renal
SK-MEL-2 melanoma = tested on: SK-MEL-2 melanoma
SN12C renal = tested on: SN12C renal
M14 melanoma = tested on: M14 melanoma
HS 578T breast = tested on: HS 578T breast
A549 NSCLC = tested on: A549 NSCLC
SR leukemia = tested on: SR leukemia
U251 CNS = tested on: U251 CNS
LOX IMVI melanoma = tested on: LOX IMVI melanoma
OVCAR-5 ovarian = tested on: OVCAR-5 ovarian
HL-60(TB) leukemia = tested on: HL-60(TB) leukemia
SF-295 CNS = tested on: SF-295 CNS
HCT-116 colon = tested on: HCT-116 colon
TK-10 renal = tested on: TK-10 renal
SK-MEL-5 melanoma = tested on: SK-MEL-5 melanoma
RXF 393 renal = tested on: RXF 393 renal
SK-OV-3 ovarian = tested on: SK-OV-3 ovarian
OVCAR-3 ovarian = tested on: OVCAR-3 ovarian
MDA-MB-231 breast = tested on: MDA-MB-231 breast

`CC(=O)N=C1C=C(NC(C)=O)C(=O)c2ccccc21` gave a TGI (RPMI-8226 leukemia) of 4.13 µM, a TGI (OVCAR-8 ovarian) of 6.04 µM and a TGI (NCI-H226 lung) of 14.9 µM. The TGI (A498 renal) was 28.6 µM, the TGI (NCI-H522 lung) was 3.06 µM and the TGI (SK-MEL-28 melanoma) was 8.04 µM. For the same compound, the TGI (UACC-62 melanoma) was 6.18 µM, the TGI (DU-145 prostate) was 3.18 µM and the TGI (HT29 colon) was 6.27 µM. It also gave a TGI (KM12 colon) of 17.5 µM, a TGI (UACC-257 melanoma) of 3.33 µM and a TGI (HCT-15 colon) of 9.13 µM. For the same compound, the TGI (UO-31 renal) was 4.26 µM, the TGI (NCI-H460 lung) was 28.1 µM and the TGI (MALME-3M melanoma) was 3.62 µM. For the same compound, the TGI (MCF7 breast) was 3.46 µM, the TGI (K-562 leukemia) was 7.01 µM and the TGI (CCRF-CEM leukemia) was 7.62 µM. The TGI (SW-620 colon) was 3.86 µM, the TGI (OVCAR-4 ovarian) was 3.09 µM and the TGI (SF-539 CNS) was 6.39 µM. The TGI (SNB-19 CNS) was 7.9 µM, the TGI (PC-3 prostate) was 7.49 µM and the TGI (786-0 renal) was 3.37 µM. For the same compound, the TGI (EKVX NSCLC) was 12.5 µM, the TGI (CAKI-1 renal) was 3.43 µM and the TGI (MDA-N) was 3.38 µM. For the same compound, the TGI (T-47D breast) was 4.05 µM, the TGI (COLO 205 colon) was 3.79 µM and the TGI (MOLT-4 leukemia) was 5.17 µM. It also gave a TGI (MDA-MB-435) of 3.48 µM, a TGI (IGROV1 ovarian) of 3.59 µM and a TGI (HOP-62 NSCLC) of 40.4 µM. For the same compound, the TGI (BT-549 breast) was 4.85 µM, the TGI (NCI/ADR-RES ovarian) was 7.59 µM and the TGI (SF-268 CNS) was 10.2 µM. It also gave a TGI (HOP-92 NSCLC) of 3.15 µM, a TGI (NCI-H23 lung) of 2.3 µM and a TGI (HCC-2998 colon) of 34.3 µM. The TGI (SNB-75 CNS) was 8.66 µM, the TGI (ACHN renal) was 3.12 µM and the TGI (SK-MEL-2 melanoma) was 10.7 µM. The TGI (SN12C renal) was 3.47 µM, the TGI (M14 melanoma) was 3.33 µM and the TGI (HS 578T breast) was 56.5 µM. For the same compound, the TGI (A549 NSCLC) was 19.1 µM, the TGI (SR leukemia) was 4.06 µM and the TGI (U251 CNS) was 10.7 µM. For the same compound, the TGI (LOX IMVI melanoma) was 3.19 µM, the TGI (OVCAR-5 ovarian) was 4.58 µM and the TGI (HL-60(TB) leukemia) was 6.84 µM. It also gave a TGI (SF-295 CNS) of 8.88 µM, a TGI (HCT-116 colon) of 3.62 µM and a TGI (TK-10 renal) of 12.3 µM. For the same compound, the TGI (SK-MEL-5 melanoma) was 3.19 µM, the TGI (RXF 393 renal) was 5.46 µM and the TGI (SK-OV-3 ovarian) was 19.9 µM.
In the case of `C/C=N\n1c(C)n[nH]c1=O`, the TGI (RPMI-8226 leukemia) is reported as > 100 µM, the TGI (OVCAR-8 ovarian) is reported as > 100 µM and the TGI (NCI-H226 lung) is reported as > 100 µM. The TGI (A498 renal) was > 100 µM, the TGI (NCI-H522 lung) was > 100 µM and the TGI (SK-MEL-28 melanoma) was > 100 µM. The TGI (UACC-62 melanoma) was > 100 µM, the TGI (DU-145 prostate) was > 100 µM and the TGI (HT29 colon) was > 100 µM. The TGI (KM12 colon) was > 100 µM, the TGI (UACC-257 melanoma) was > 100 µM and the TGI (HCT-15 colon) was > 100 µM. The TGI (UO-31 renal) was > 100 µM, the TGI (NCI-H460 lung) was > 100 µM and the TGI (MALME-3M melanoma) was > 100 µM. The TGI (MCF7 breast) was > 100 µM, the TGI (K-562 leukemia) was > 100 µM and the TGI (CCRF-CEM leukemia) was > 100 µM. The TGI (SW-620 colon) was > 100 µM, the TGI (OVCAR-4 ovarian) was > 100 µM and the TGI (SF-539 CNS) was > 100 µM. For the same compound, the TGI (SNB-19 CNS) was > 100 µM, the TGI (PC-3 prostate) was > 100 µM and the TGI (786-0 renal) was > 100 µM. For the same compound, the TGI (EKVX NSCLC) was > 100 µM, the TGI (CAKI-1 renal) was > 100 µM and the TGI (MDA-N) was > 100 µM. The TGI (T-47D breast) was > 100 µM, the TGI (COLO 205 colon) was > 100 µM and the TGI (MOLT-4 leukemia) was > 100 µM. For the same compound, the TGI (MDA-MB-435) was > 100 µM, the TGI (IGROV1 ovarian) was > 100 µM and the TGI (HOP-62 NSCLC) was > 100 µM. The TGI (BT-549 breast) was > 100 µM, the TGI (NCI/ADR-RES ovarian) was > 100 µM and the TGI (SF-268 CNS) was > 100 µM. The TGI (HOP-92 NSCLC) was > 100 µM, the TGI (NCI-H23 lung) was > 100 µM and the TGI (HCC-2998 colon) was > 100 µM. The TGI (SNB-75 CNS) was > 100 µM, the TGI (ACHN renal) was > 100 µM and the TGI (SK-MEL-2 melanoma) was > 100 µM. For the same compound, the TGI (SN12C renal) was > 100 µM, the TGI (M14 melanoma) was > 100 µM and the TGI (HS 578T breast) was > 100 µM. For the same compound, the TGI (OVCAR-3 ovarian) was > 100 µM, the TGI (A549 NSCLC) was > 100 µM and the TGI (SR leukemia) was > 100 µM. For the same compound, the TGI (U251 CNS) was > 100 µM, the TGI (LOX IMVI melanoma) was > 100 µM and the TGI (OVCAR-5 ovarian) was > 100 µM. The TGI (HL-60(TB) leukemia) was > 100 µM, the TGI (SF-295 CNS) was > 100 µM and the TGI (HCT-116 colon) was > 100 µM. The TGI (TK-10 renal) was > 100 µM, the TGI (SK-MEL-5 melanoma) was > 100 µM and the TGI (RXF 393 renal) was > 100 µM.
For `Cc1ccc2nc(NC(=O)C(=O)C3C(=O)NC(=S)NC3=O)sc2c1`, the TGI (RPMI-8226 leukemia) was > 100 µM, the TGI (OVCAR-8 ovarian) was > 100 µM and the TGI (NCI-H226 lung) was > 100 µM. The TGI (A498 renal) was > 100 µM, the TGI (NCI-H522 lung) was > 100 µM and the TGI (SK-MEL-28 melanoma) was > 100 µM. For the same compound, the TGI (UACC-62 melanoma) was > 100 µM, the TGI (HT29 colon) was > 100 µM and the TGI (KM12 colon) was > 100 µM. The TGI (UACC-257 melanoma) was > 100 µM, the TGI (HCT-15 colon) was > 100 µM and the TGI (UO-31 renal) was > 100 µM. For the same compound, the TGI (NCI-H460 lung) was > 100 µM, the TGI (MALME-3M melanoma) was > 100 µM and the TGI (MCF7 breast) was > 100 µM. The TGI (CCRF-CEM leukemia) was > 100 µM, the TGI (SW-620 colon) was > 100 µM and the TGI (OVCAR-4 ovarian) was > 100 µM. For the same compound, the TGI (SF-539 CNS) was > 100 µM, the TGI (SNB-19 CNS) was > 100 µM and the TGI (MDA-MB-231 breast) was > 100 µM. For the same compound, the TGI (PC-3 prostate) was > 100 µM, the TGI (786-0 renal) was > 100 µM and the TGI (EKVX NSCLC) was > 100 µM. For the same compound, the TGI (CAKI-1 renal) was > 100 µM, the TGI (MDA-N) was > 100 µM and the TGI (T-47D breast) was > 100 µM. For the same compound, the TGI (MOLT-4 leukemia) was > 100 µM, the TGI (MDA-MB-435) was > 100 µM and the TGI (IGROV1 ovarian) was > 100 µM. The TGI (HOP-62 NSCLC) was > 100 µM, the TGI (BT-549 breast) was > 100 µM and the TGI (NCI/ADR-RES ovarian) was > 100 µM. The TGI (SF-268 CNS) was > 100 µM, the TGI (HOP-92 NSCLC) was > 100 µM and the TGI (NCI-H23 lung) was > 100 µM. The TGI (HCC-2998 colon) was > 100 µM, the TGI (SNB-75 CNS) was > 100 µM and the TGI (ACHN renal) was > 100 µM. For the same compound, the TGI (SK-MEL-2 melanoma) was > 100 µM, the TGI (SN12C renal) was > 100 µM and the TGI (M14 melanoma) was > 100 µM. The TGI (HS 578T breast) was > 100 µM, the TGI (OVCAR-3 ovarian) was > 100 µM and the TGI (A549 NSCLC) was > 100 µM. For the same compound, the TGI (U251 CNS) was > 100 µM, the TGI (LOX IMVI melanoma) was > 100 µM and the TGI (OVCAR-5 ovarian) was > 100 µM. The TGI (HL-60(TB) leukemia) was > 100 µM, the TGI (SF-295 CNS) was > 100 µM and the TGI (HCT-116 colon) was > 100 µM. For the same compound, the TGI (TK-10 renal) was > 100 µM, the TGI (SK-MEL-5 melanoma) was > 100 µM and the TGI (RXF 393 renal) was > 100 µM. For the same compound, the TGI (SK-OV-3 ovarian) was > 100 µM.
